# ChEMBL document CHEMBL1201862, “PubChem BioAssay data set” (2004)
# Active and inactive are the calls of the source.
# Assays:
# Large T antigen = Large T antigen (Simian virus 40, UniProt P03070); assay type: functional, Betapolyomavirus macacae;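 further: Confirmatory-stage PubChem screen for compounds that inhibit SV40 T antigen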
# [1] = A cytotoxicity screen of small molecule inhibitors of the PhoP region in Salmonella typhi identified in the primary screen. [Related pubchem assays: 1850, 1864, 1985 ]; assay type: functional
# [2] = Luminescence Cell-Based Dose Confirmation HTS to Identify Inhibitors of Platelet Dense Granule Release. [Related pubchem assays: 1663 (Primary HTS), 1678 (Summary of Project)]; assay type: functional
# [3] = molecular target: Luciferin 4-monooxygenase (Photinus pyralis, UniProt P08659); assay: inhibition of purified Photinus pyralis luciferase – biochemical, luminescence, dose response (AID 1891)
# Luciferin 4-monooxygenase, sequence (P08659 whole entry): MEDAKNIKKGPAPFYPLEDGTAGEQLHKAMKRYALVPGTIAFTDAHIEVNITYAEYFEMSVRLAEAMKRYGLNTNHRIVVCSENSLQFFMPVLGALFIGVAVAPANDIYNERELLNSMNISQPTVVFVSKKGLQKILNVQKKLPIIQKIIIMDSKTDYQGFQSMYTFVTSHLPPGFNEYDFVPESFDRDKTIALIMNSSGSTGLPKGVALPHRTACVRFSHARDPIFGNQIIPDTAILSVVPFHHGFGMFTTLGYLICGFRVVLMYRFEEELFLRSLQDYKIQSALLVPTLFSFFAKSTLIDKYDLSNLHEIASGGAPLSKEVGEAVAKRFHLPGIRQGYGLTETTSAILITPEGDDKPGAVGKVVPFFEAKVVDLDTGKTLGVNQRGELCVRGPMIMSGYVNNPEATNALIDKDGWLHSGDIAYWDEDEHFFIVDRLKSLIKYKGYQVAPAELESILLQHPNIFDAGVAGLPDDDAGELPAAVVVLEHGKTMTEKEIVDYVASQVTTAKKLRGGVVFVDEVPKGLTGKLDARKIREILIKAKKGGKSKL
# BJ [4] = assay: BJ-TERT-LT-ST fibroblast viability loss – cell-based, RAS-independent, luminescence, dose response (AID 1935); assay type: functional; details: Homo sapiens;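 further: BJ fibroblasts immortalized with TERT plus LT and ST oncogenes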
# [5] = DRD fibroblast viability loss – cell-based, non-viral oncogenic, luminescence, dose response (AID 1934); assay type: functional; details: Homo sapiens
# BJ [6] = assay: cells; assay type: functional, cell-based; details: Homo sapiens
# BJ [7] = assay: BJ-TERT fibroblast viability loss – cell-based, RAS-independent, luminescence, dose response (AID 1933); assay type: functional; details: Homo sapiens
# [8] = non-specific 3'UTR reporter inhibition in Clone20-Shn3RL – cell-based, Renilla luciferase, cherry-picked, counter-screen for Shn3 inhibitor project, dose response (AID 624133); assay type: functional
# [9] = reduction of Shn3 3'UTR-driven luciferase in osteoblasts – cell-based, Clone20 osteoblasts, firefly luciferase, cherry-picked, dose response (AID 624132); assay type: functional;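 further: firefly luciferase luminescence from reporter carrying the Shn3 3'UTR in osteoblasts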
# INS1 = assay: INS-1E survival protection against cytokine death – cell-based, luminescence, retest, dose response (AID 449756); assay type: functional; details: Rattus norvegicus;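 further: cell death triggered by IL-1 beta plus TNF-alpha plus IFN-gamma mixture; protective hits raise ATP signal compared with cytokine alone wells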
# [10] = loss of viability in HepG2 cells – cell-based, CellTiter-Glo, cherry-picked, cytotoxicity control for Shn3 inhibitor project, dose response (AID 624134); assay type: functional
# [11] = HIV-1 AD8 envelope cell-cell fusion blockers – cherry-pick, dose response (AID 652062); assay type: functional, cell-based;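 further: luciferase signal from cell-cell fusion driven by HIV-1 clade B AD8 Env; potency is for inhibitors of fusion seen as a drop in luminescence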
# [12] = blockers of HIV-1 ZM109 envelope-driven cell-cell fusion – HeLa effector, CEM target cells, luciferase, cherry-pick, dose response (AID 652058); assay type: functional, cell-based;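 further: luciferase signal from HIV-1 Env mediated cell-cell fusion of effector and target cells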
# Estrogen receptor beta = Estrogen receptor beta (Homo sapiens, UniProt Q92731); assay: blockers of SRC-3 recruitment to ERβ – biochemical, ELISA, streptavidin-HRP readout, orthogonal assay, confirmation (AID 1060)
# Estrogen receptor beta, sequence (Q92731 whole entry): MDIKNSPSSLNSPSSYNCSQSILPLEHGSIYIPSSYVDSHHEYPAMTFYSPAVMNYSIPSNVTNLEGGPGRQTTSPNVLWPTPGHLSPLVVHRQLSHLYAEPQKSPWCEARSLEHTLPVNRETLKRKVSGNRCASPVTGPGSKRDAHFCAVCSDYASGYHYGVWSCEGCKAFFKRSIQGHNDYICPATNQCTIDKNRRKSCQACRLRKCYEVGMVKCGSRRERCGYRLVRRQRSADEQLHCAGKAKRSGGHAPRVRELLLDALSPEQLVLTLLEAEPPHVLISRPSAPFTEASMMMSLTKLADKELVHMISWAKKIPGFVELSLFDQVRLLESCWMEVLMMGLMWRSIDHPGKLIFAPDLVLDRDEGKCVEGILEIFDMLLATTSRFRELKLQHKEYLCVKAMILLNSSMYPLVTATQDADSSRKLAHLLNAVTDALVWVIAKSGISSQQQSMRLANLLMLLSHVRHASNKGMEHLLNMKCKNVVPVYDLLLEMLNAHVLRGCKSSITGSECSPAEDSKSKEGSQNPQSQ
# Estrogen receptor = molecular target: T1, Estrogen receptor (Homo sapiens, UniProt P03372);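 further: potency for inhibiting coactivator peptide recruitment to the receptor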
# T1 sequence (P03372 whole entry): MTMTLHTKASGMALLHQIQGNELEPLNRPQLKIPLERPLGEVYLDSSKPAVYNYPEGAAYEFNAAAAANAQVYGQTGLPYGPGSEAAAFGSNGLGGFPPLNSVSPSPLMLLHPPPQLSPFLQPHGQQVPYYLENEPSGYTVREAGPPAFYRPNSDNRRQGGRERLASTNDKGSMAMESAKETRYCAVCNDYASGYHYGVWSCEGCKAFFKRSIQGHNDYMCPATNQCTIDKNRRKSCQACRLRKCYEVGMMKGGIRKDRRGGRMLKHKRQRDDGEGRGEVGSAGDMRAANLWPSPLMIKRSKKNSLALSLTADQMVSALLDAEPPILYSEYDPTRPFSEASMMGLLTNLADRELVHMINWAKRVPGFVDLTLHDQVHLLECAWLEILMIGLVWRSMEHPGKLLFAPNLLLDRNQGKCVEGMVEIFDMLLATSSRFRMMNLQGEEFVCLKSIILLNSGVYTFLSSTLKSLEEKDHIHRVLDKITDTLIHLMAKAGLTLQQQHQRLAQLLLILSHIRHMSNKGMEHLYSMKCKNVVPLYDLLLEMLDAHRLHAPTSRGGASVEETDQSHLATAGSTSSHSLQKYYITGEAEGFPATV
# [13] = blockers of HIV-1 envelope-mediated cell-cell fusion – cherry-pick, dose response (AID 652057); assay type: functional, cell-based
# [14] = molecular target: T2, Sentrin-specific protease 6 (Homo sapiens, UniProt Q9GZR1); assay type: functional;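 further: Luminescence-based dose-response confirmatory assay of SENP6 inhibition, following up an ultra-high-throughput screen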
# T2 sequence (Q9GZR1 whole entry): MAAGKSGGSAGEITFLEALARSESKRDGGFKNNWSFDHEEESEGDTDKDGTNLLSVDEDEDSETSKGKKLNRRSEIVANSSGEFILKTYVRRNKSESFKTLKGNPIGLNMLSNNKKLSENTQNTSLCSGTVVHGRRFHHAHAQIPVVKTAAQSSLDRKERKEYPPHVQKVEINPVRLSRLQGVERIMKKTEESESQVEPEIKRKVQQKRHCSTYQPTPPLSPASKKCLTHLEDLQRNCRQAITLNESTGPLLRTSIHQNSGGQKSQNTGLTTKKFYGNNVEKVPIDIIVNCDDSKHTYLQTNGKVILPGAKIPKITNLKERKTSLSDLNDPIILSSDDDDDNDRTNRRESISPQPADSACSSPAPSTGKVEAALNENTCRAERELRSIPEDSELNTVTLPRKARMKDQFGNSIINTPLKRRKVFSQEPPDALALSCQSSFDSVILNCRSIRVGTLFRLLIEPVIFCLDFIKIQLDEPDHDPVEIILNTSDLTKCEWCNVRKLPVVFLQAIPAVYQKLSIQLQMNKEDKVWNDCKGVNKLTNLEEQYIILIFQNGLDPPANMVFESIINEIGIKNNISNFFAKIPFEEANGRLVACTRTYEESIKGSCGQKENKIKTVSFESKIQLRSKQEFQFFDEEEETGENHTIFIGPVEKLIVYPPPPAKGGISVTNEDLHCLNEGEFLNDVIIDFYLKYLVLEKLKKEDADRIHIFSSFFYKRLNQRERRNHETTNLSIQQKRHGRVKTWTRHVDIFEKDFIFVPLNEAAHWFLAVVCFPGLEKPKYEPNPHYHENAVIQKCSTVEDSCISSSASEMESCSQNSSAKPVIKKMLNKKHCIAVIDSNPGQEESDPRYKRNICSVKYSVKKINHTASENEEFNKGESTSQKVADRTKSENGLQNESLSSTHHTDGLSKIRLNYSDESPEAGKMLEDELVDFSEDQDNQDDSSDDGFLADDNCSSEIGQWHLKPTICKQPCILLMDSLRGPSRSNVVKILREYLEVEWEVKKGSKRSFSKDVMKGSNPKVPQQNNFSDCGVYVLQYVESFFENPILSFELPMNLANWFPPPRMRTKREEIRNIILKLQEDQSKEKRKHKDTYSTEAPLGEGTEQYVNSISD
# [15] = molecular target: T3, Sentrin-specific protease 8 (Homo sapiens, UniProt Q96LD8); assay type: functional;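 further: luminescence read-out of SENP8 inhibition, dose-response confirmation following an ultra-high-throughput screen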
# T3 sequence (Q96LD8 whole entry): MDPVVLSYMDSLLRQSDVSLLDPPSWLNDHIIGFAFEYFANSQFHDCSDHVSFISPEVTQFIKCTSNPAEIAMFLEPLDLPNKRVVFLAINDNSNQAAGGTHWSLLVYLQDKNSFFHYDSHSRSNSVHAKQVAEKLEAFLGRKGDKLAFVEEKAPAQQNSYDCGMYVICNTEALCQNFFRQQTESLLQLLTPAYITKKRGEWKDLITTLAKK
# [16] = molecular target: T4, Sentrin-specific protease 7 (Homo sapiens, UniProt Q9BQF6); assay type: functional;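 further: Luminescence-based dose-response confirmation of ultra-high-throughput screening hits, measuring inhibition of SENP7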
# T4 sequence (Q9BQF6 whole entry): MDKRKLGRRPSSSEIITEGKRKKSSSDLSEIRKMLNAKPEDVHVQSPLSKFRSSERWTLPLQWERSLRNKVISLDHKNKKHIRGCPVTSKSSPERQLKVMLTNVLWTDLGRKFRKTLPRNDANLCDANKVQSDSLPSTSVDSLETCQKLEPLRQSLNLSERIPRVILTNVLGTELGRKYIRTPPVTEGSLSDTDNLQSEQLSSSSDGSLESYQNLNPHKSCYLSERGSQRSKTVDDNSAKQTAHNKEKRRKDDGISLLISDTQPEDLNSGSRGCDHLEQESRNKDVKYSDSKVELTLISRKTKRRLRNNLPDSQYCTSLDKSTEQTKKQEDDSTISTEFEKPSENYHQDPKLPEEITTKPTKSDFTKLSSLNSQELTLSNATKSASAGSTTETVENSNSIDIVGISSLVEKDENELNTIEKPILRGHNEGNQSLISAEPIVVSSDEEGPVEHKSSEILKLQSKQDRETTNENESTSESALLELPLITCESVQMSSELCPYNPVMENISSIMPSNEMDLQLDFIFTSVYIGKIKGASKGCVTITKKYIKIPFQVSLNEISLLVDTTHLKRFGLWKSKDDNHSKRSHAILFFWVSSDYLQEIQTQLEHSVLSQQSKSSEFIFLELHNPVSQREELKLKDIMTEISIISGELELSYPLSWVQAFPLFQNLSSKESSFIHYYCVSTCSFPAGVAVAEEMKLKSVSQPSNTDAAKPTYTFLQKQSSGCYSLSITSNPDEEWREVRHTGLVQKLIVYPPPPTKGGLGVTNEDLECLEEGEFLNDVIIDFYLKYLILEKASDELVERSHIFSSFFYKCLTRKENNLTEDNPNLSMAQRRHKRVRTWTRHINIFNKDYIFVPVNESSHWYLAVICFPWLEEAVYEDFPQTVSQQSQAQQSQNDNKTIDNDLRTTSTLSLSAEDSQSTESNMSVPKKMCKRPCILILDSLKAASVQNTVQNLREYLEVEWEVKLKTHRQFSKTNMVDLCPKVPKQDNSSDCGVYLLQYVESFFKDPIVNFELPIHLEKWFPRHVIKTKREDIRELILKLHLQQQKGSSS
# [17] = P. falciparum Dd2 growth inhibitors, dose response, SYBR Green, cherry-picked samples (AID 1159567); assay type: functional, cell-based
# [18] = toxicity to human hepatoma HepG2 cells – cell-based, cherry-picked samples, cytotoxicity control, dose response (AID 1159577); assay type: functional
# Large T antigen, sequence (P03070 whole entry): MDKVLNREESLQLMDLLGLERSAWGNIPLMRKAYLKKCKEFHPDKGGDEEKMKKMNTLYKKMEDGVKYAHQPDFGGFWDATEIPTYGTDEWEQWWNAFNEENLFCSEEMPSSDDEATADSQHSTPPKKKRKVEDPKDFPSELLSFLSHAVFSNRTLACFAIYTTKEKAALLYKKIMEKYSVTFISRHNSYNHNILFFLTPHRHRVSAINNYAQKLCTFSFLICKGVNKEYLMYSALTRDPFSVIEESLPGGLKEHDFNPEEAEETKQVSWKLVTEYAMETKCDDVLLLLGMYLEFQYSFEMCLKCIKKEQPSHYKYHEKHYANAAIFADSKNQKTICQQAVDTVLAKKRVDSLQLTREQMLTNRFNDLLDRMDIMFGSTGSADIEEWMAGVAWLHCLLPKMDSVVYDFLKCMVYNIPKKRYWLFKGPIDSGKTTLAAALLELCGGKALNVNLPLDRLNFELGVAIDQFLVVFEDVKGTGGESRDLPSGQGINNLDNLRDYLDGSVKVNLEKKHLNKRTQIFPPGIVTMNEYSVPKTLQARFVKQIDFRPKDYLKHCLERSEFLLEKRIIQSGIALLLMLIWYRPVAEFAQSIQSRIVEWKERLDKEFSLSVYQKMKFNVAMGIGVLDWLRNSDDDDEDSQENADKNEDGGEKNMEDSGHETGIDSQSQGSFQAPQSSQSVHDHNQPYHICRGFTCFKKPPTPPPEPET
structure (smiles),measurement,setting,value
CCOc1cc(NS(=O)(=O)c2ccc(NC(C)=O)cc2)c(OCC)cc1NC(=O)c1cccs1,IC50,Large T antigen,24 µM (active)
O=c1cc(CN2CCN(c3ccc(O)cc3)CC2)nc2scc(-c3ccccc3)n12,IC50,Large T antigen,10.5 µM (active)
Clc1ccc(CNCc2cccs2)cc1Cl,EC50,[1],> 50 µM (active)
O=C1NC(=O)C2(CCC(C(=O)O)C2)N1 (stereo not drawn),EC50,[2],> 112 µM (not active)
same,EC50,[3],> 112 µM (not active)
C=CCn1c(O)c(N=NC(=O)c2cccnc2)c2cc(Br)ccc21,EC50,[1],> 50 µM (active)
COc1cc(SC)ccc1C(=O)NNC(=O)c1cc(C)oc1C,EC50,BJ [4],18.2 µM (active)
same,EC50,[5],3.82 µM (active)
same,EC50,BJ [6],6.06 µM (active)
same,EC50,[2],8.87 µM (active)
same,EC50,[3],1.4 µM (active)
same,EC50,BJ [7],3.71 µM (inconclusive)
Cc1ccc(C(=O)Nc2cccc3[nH]c(C(F)(F)F)nc23)cc1,AC50,[8],10.3 µM (active)
same,AC50,[9],3.93 µM (active)
same,AC50,INS1,7.25 µM (active)
same,AC50,[10],33.6 µM (active)
COc1ccccc1-c1c(C(F)(F)F)n[nH]c1-c1ccc(O)cc1O,AC50,[8],1.42 µM (active)
same,AC50,[11],19 µM (active)
same,AC50,[9],0.708 µM (active)
same,AC50,[12],0.97 µM (active)
same,AC50,[10],> 70 µM (inactive)
CCOC(=O)C1CCCN(C(=O)c2cc3ncc(Br)cn3n2)C1 (stereo not drawn),IC50,Estrogen receptor beta,0.0694 µM (not active)
same,IC50,Estrogen receptor,20.7 µM (active)
COc1ccc(NC(=O)c2cc(-c3ccc(C)o3)nc3ccccc23)cc1OC,IC50,Estrogen receptor beta,24.7 µM (not active)
O=C(Nc1cccnc1)c1cc(Br)c(Br)s1,EC50,[1],> 50 µM (active)
CCOC(=O)c1cc2cc([N+](=O)[O-])ccc2oc1=O,EC50,[2],> 112 µM (not active)
same,EC50,[3],> 112 µM (not active)
O=C(NCN1CCN(c2ccccn2)CC1)c1cnccn1,EC50,[2],> 112 µM (not active)
same,EC50,[3],> 112 µM (not active)
C[C@H](CO)N1C[C@H](C)[C@H](CN(C)S(=O)(=O)c2ccc(Cl)cc2)Oc2ccc(NC(=O)C3CCCCC3)cc2CC1=O,AC50,[11],20.1 µM (active)
same,AC50,[13],1.36 µM (active)
same,AC50,[12],2.13 µM (active)
C[C@H](CO)N1C[C@H](C)[C@@H](CN(C)C(=O)Nc2cccc3ccccc23)OCCCC[C@H](C)Oc2ccc(N(C)C)cc2C1=O,AC50,[12],24.8 µM (active)
COc1ccccc1NC(=O)N[C@@H]1CC[C@H](CC(=O)N[C@H](C)c2ccccc2)O[C@@H]1CO,AC50,[11],2.61 µM (active)
same,AC50,[13],0.97 µM (active)
same,AC50,[12],< 0.26 µM (active)
Cc1[nH]n(C(N)=S)c(=O)c1/N=N/c1ccccc1C(F)(F)F,IC50,[14],18.9 µM (active)
same,IC50,[15],15.5 µM (active)
same,IC50,[16],12.7 µM (active)
C/C(=N\NC(=O)COc1ccccc1[N+](=O)[O-])c1cccs1,EC50,[1],> 50 µM (active)
COc1cccc(CN2CC3(CCN(CC4CC4)CC3)c3c([nH]c4cc(OC)ccc34)[C@H]2CO)c1,AC50,[17],5 µM (active)
same,AC50,[18],19.7 µM (active)
COc1ccc(C#Cc2ccc([C@@H]3[C@H](CO)N4CCCCN(Cc5ccncc5)C[C@@H]34)cc2)cc1,AC50,[17],0.949 µM (active)
same,AC50,[18],13.6 µM (active)
CC(C)N(C[C@H]1N[C@H](CO)[C@@H]1c1ccc(C2=CCCC2)cc1)C(=O)CN(C)C,AC50,[17],5.21 µM (active)
same,AC50,[18],> 39 µM (inactive)
C[C@@H]1CN([C@H](C)CO)S(=O)(=O)c2ccc(/C=C/c3ccccc3)cc2O[C@H]1CN(C)Cc1cccnc1,AC50,[17],3.7 µM (active)
same,AC50,[18],19.7 µM (active)
